Where two headings read alike, the source gives them in different places.
Key:
hM1 mAChR [1] = molecular target: T1, hM1 mAChR (Homo sapiens, UniProt P11229); experiment: IP1 accumulation assay (ACh concentration-response curves in absence or presence of modulator); type: cell-based; conditions: for ΔpEC50 [1 μM]: change in ACh pEC50 in presence of M1 PAM compared to control curve / activation at 1 µM: 1 μM modulator; for ΔpEC50 [1 μM]: change in ACh pEC50 in presence of M1 PAM compared to control curve / activation at 1 µM / ΔpEC50 [10 μM]: change in ACh pEC50 in presence of M1 PAM compared to control curve / activation at 10 µM: FlpIn CHO hM1 cells, mean ± SEM, 3 experiments; for activation at 1 µM: read-out: Δbaseline [1 μM]: change in basal response in presence of M1 PAM compared to control curve; for ΔpEC50 [10 μM]: change in ACh pEC50 in presence of M1 PAM compared to control curve / activation at 10 µM: 10 μM modulator; for activation at 10 µM: read-out: Δbaseline [10 μM]: change in basal response in presence of M1 PAM compared to control curve; for αβ (functional cooperativity with ACh) / τB (intrinsic efficacy of the modulator) / log τB (logarithm of intrinsic efficacy of the modulator) / log αβ (logarithm of functional cooperativity between ACh and modulator): IP1 accumulation; for αβ (functional cooperativity with ACh) / τB (intrinsic efficacy of the modulator): antilog, in parentheses; for log τB (logarithm of intrinsic efficacy of the modulator) / log αβ (logarithm of functional cooperativity between ACh and modulator): operational model; for log αβ (logarithm of functional cooperativity between ACh and modulator): pKB constrained to binding value
T1 construct: expressed in transfected cells
T1 sequence (P11229 1-460): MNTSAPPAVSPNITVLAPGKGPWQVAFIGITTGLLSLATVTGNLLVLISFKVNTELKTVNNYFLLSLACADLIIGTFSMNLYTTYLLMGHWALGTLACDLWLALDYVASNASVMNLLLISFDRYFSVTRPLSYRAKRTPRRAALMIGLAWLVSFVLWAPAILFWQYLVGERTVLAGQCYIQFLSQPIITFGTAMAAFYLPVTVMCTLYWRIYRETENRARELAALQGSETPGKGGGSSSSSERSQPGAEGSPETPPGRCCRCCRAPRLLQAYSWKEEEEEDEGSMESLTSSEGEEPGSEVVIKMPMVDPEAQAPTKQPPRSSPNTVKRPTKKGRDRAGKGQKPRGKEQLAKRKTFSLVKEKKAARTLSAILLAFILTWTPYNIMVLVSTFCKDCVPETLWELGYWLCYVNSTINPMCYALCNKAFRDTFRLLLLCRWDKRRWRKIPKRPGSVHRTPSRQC
Procedure: Functional activity of the synthesized analogues as racemic mixtures was investigated in IP1 accumulation assays at the M1 mAChR, as described previously.[13–14] ACh concentration-response curves were generated in the absence or presence of a 1 and 10 μM concentration of each modulator. The change in baseline activity (Δbaseline) is an approximate measure of direct allosteric agonism (τB), whereas the pEC50 shift (ΔpEC50) is an approximate measure of functional cooperativity (αβ) of each modulator with ACh in the investigated signalling pathway. We aimed to identify modulators with various degrees of allosteric agonism and modulatory effects on ACh response, as these could generate distinct in vivo outcomes for applications in different conditions in the CNS or gastrointestinal (GI) tract.[[10g,h,j]]
(§1) The compounds were then fully characterised in two functional assays (Figure 2C and D); the Gq-coupled IP1 accumulation assay (Figure S2), which was used for the initial screening of the compounds, and a β-arrestin 2 recruitment assay (Figure S3). The operational efficacy (τB) values for the modulators and their functional cooperativity estimates with ACh (logαβACh) at both signalling pathways were estimated by applying an operational model of allosterism and agonism to the data [Eq. (3)],[16] and are listed in Table 5.
FlpIn CHO cells stably expressing the hM1 mAChR were seeded at 25000 per well of 96-well transparent cell culture plates and grown overnight. […] Cells were then stimulated with increasing concentration of ACh in the absence or presence of increasing concentrations of each modulator for 1 h at 37°C. […] Seven μL of cell lysates were transferred into wells of 384-well Proxiplates (Perki-nElmer Life Sciences), and IP1 levels were measured using the IP-One assay kit (Cisbio, Codolet, France). […] The signal was expressed as the HTRF ratio, interpolated from the standard curve, and normalized to the maximum response to ACh.
Changes in both baseline and pEC50 were quantified by subtracting the estimates at each M1 PAM concentrations with the control values. Propagation of the error on baseline and potency values were determined as follows [Eq. (1)]: σΔ=σPAM2+σcont.2 where σΔ is the standard error of the mean (SEM) for the change in value, and σPAM and σcont. are the SEM from the three-parameter logistic equation analysis in presence or absence of M1 PAM, respectively.
(§2) Functional interaction studies between ACh and allosteric modulators in IP1 and β-arrestin 2 recruitment assays were analysed according to a three-parameter logistic equation or the following operational model of allosterism and agonism [Eq. (3)].[16] E=Basal+(Em−Basal)([A](KB+αβ[B])+τB[B]EC50)^n/EC50n(KB+[B])^n+([A](KB+αβ[B])+τB[B]EC50)^n where Em is the maximal possible system response, and Basal is the response in the absence of agonist. [A] and [B] are concentrations of orthosteric and allosteric ligands, respectively. KB is the equilibrium dissociation constant of allosteric ligand, and EC50 is the concentration of orthosteric agonist required to achieve half maximal response. α and β represent the magnitude of the allosteric effects on orthosteric ligand affinity and efficacy, respectively; τB is the efficacy of allosteric ligand, and n is the slope factor of the transducer function that links occupancy to response.

hM1 mAChR [2] = molecular target: T1, hM1 mAChR; experiment: Whole-cell [3H]NMS equilibrium competition radioligand binding; conditions: [3H]NMS binding; for α (binding cooperativity with ACh): antilog
Procedure: To determine the affinity (pKB) of the allosteric modulators for the allosteric site, and their binding cooperativity with ACh (log αACh) at the M1 mAChR, whole cell equilibrium competition binding studies were performed, using [^3H]NMS to label the orthosteric site.
FlpIn Chinese hamster ovary (CHO) cells stably expressing the hM1 mAChR were grown in Dulbecco’s modified Eagle’s medium (DMEM) (Invitrogen, Carlsbad, CA) supplemented with 5% foetal bovine serum (FBS) (Thermo-Trace, Melbourne, Australia) and 300 μg/mL G418 (Invitrogen, Carlsbad, CA). The cells were plated at 50,000 cells per well of 96-well white clear bottom plates (Greiner Bio-one, Kremsmünster, Austria), and were grown overnight. The following day, cells were washed twice with Phosphate Buffered Saline (PBS), and incubated with increasing concentrations of ACh (Sigma) in the absence or presence of increasing concentrations of each modulator and 0.2 nM [^3H]NMS (PerkinElmer Life Sciences) in binding buffer (20 mM HEPES, 100 mM NaCl, 10 mM MgCl2, pH 7.4) for 5 h at room temperature. Nonspecific binding was determined using atropine at the final concentration of 10 μM. The assays were terminated by rapid removal of the unbound radioligand followed by two washes with 100 μL/well ice-cold 0.9% NaCl buffer. Radioactivity was determined by addition of 100 μL/well Ultima gold (PerkinElmer Life Sciences) and counting in a MicroBeta plate reader (PerkinElmer Life Sciences).
Binding interaction studies with allosteric ligands were fitted to the following allosteric ternary complex model [Eq. (2)][15] Y=Bmax|A|/[Λ]+[KAKB/α^′[B]+KB][1+[I]/K1+[B]/KB+α[I][B]/KIKB] where Bmax is the total number of receptors, [A], [B] and [I] denote the concentrations of radioligand, allosteric modulator, and orthosteric ligand, respectively; KA, KB and KI are their respective equilibrium dissociation constants. α’ and α are the affinity cooperativity factors between the allosteric ligand and radioligand or the allosteric modulator and ACh, respectively. Values of α or α’ > 1 denote positive cooperativity, values < 1 but > 0 denote negative cooperativity, and a value of 1 indicates neutral coopera-tivity.

M1 mAChR = molecular target: T2, M1 mAChR (Homo sapiens, UniProt P11229); experiment: β-arrestin 2 recruitment assay (BRET); type: cell-based; conditions: for αβ (functional cooperativity with ACh) / τB (intrinsic efficacy of the modulator): antilog, in parentheses; for log τB (logarithm of intrinsic efficacy of the modulator) / log αβ (logarithm of functional cooperativity between ACh and modulator): operational model; for log αβ (logarithm of functional cooperativity between ACh and modulator): pKB constrained to binding value
T2 construct: expressed in transfected cells; host or cells: parental FlpIn CHO cells (transient, PEI)
T2 sequence (P11229 1-460): T1 sequence (P11229 1-460)
Excerpt: as §1
Parental FlpIn CHO cells were plated at 30000 cells/well of 96-well white Culture plates (Perkin Elmer Life Sciences) and transiently transfected with 10 ng/well of M1 Renilla luciferase (Rluc)-8 and 40 ng/well of YFP-β-arrestin 2 using linear polyethyleneimine (PEI/DNA ratio 6:1) diluted in 150 mM NaCl. DNA:PEI complexes were formed by 15 min incubation at room temperature then added to the cells and incubated at 37°C for 24 h prior to use. Cells were then washed and equilibrated in Hanks’ balanced salt solution for 1 h at 37°C. Coelenterazine h at a final concentration of 5 μM was added to each well, followed by addition of increasing concentrations of ACh in the absence or presence of increasing concentrations of each modulator. Lumines-cence and fluorescence signals were measured 5 min after agonist stimulation using the LUMIstar Omega plate reader (BMG LabTech, Offenburg, Germany). […] Data were then normalized to the maximum response to ACh.
as §2

[3] = allosteric ternary complex model, mean ± SEM, read-out: pKB (negative logarithm of the allosteric modulator equilibrium dissociation constant) (converted)
[4] = antilog of pKB, in parentheses, read-out: KB (converted)

| ΔpEC50 [1 μM]: change in ACh pEC50 in presence of M1 PAM compared to control curve (hM1 mAChR [1]) | activation at 1 µM (hM1 mAChR [1]) | ΔpEC50 [10 μM]: change in ACh pEC50 in presence of M1 PAM compared to control curve (hM1 mAChR [1]) | activation at 10 µM (hM1 mAChR [1]) | αβ (functional cooperativity with ACh) (hM1 mAChR [1]) | τB (intrinsic efficacy of the modulator) (hM1 mAChR [1]) | log τB (logarithm of intrinsic efficacy of the modulator) (hM1 mAChR [1]) | log αβ (logarithm of functional cooperativity between ACh and modulator) (hM1 mAChR [1]) | Kb (hM1 mAChR [2]; [3]) | α (binding cooperativity with ACh) (hM1 mAChR [2]; in parentheses) | log αACh (logarithm of binding cooperativity between ACh and modulator) (hM1 mAChR [2]; mean ± SEM) | αβ (functional cooperativity with ACh) (M1 mAChR) | τB (intrinsic efficacy of the modulator) (M1 mAChR) | log τB (logarithm of intrinsic efficacy of the modulator) (M1 mAChR) | log αβ (logarithm of functional cooperativity between ACh and modulator) (M1 mAChR) | Kb (hM1 mAChR [2]; [4]) | Compound |
| --- | --- | --- | --- | --- | --- | --- | --- | --- | --- | --- | --- | --- | --- | --- | --- | --- |
| 1.88±0.37 | 70.8 ± 4% | 2.28±0.77 | 90.3 ± 3.1% | 562 | 6 | 0.78±0.04 | 2.75±0.11 | 6.03 µM | 380 | 2.58±0.18 | 955 | 1 | 0.07±0.05 | 2.98±0.10 |  | Cn1cc(-c2ccc(COc3ccsc3-c3ccn(C4CCCCC4O)c(=O)c3)cc2)cn1 (centres unmarked) [Compound 7h, 1-(2-Hydroxycyclohexyl)-4-(3-((4-(1-methyl-1H-pyrazol-4-yl)benzyl)oxy)thiophen-2-yl)pyridin-2(1H)-one] |
| 0.29±0.05 | 4.8 ± 1.4% | 1.31±0.06 | 27 ± 1.5% | 30 | 1 |  | 1.48±0.11 | 29.5 µM | 52 | 1.72±0.20 | 14 |  |  | 1.16±0.17 | 30 µM | Cn1cc(-c2ccc(COc3ccccc3-c3ccn(C4CCCCC4=O)c(=O)c3)cc2)cn1 (centres unmarked) [Compound 13d, 4-(2-((4-(1-Methyl-1H-pyrazol-4-yl)benzyl)oxy)phenyl)-1-(2-oxocy-clohexyl)pyridin-2(1H)-one] |
|  | 100% |  | 100% |  | 3 | 0.54±0.02 | 1.89±0.07 | 3.31 µM | 120 | 2.08±0.13 | 95 | 2 | 0.28±0.04 | 1.98±0.10 | 3 µM | Cn1cc(-c2ccc(COc3ncccc3-c3cc(=O)n(C4CCCCC4O)cn3)cc2)cn1 (centres unmarked) [Compound 26a, 3-(2-Hydroxycyclohexyl)-6-(2-((4-(1-methyl-1H-pyrazol-4-yl)benzyl)oxy)pyridin-3-yl)pyrimidin-4(3H)-one] |

Source: publication PMC7616174, “Development of Novel 4-Arylpyridin-2-one and 6-Arylpyrimidin-4-one Positive Allosteric Modulators of the M1 Muscarinic Acetylcholine Receptor” (ChemMedChem, 2020)
